System: MV-4-11 cells
Experiment: Gene expression microarray analysis (Affymetrix PrimeView) and GSEA
Type: cell-based, human
Parameters: RFU PODN (11730768_x_at) / Fold change /veh PODN (11730768_x_at) / RFU LINC00158 (11744669_a_at) / Fold change /veh LINC00158 (11744669_a_at) / RFU DUSP10 (11751237_a_at) / Fold change /veh DUSP10 (11751237_a_at) / RFU ID3 (11757404_x_at) / Fold change /veh ID3 (11757404_x_at) / RFU PLEKHG5 (11737974_s_at) / Fold change /veh PLEKHG5 (11737974_s_at) / RFU LRRC4B (11730491_at) / Fold change /veh LRRC4B (11730491_at) / RFU GIMAP4 (11747438_a_at) / Fold change /veh GIMAP4 (11747438_a_at) / RFU KRT8 (11758183_x_at) / Fold change /veh KRT8 (11758183_x_at) / RFU CNN1 (11734310_a_at) / Fold change /veh CNN1 (11734310_a_at) / RFU VPS37D (11726825_at) / Fold change /veh VPS37D (11726825_at) / RFU C10orf10 (11716522_x_at) / Fold change /veh C10orf10 (11716522_x_at) / RFU KIR2DL2 /// KIR2DL4 /// KIR2DL5A /// KIR2DL5B /// KIR2DS1 /// KIR2DS2 /// KIR2DS3 /// KIR2DS4 /// KIR3DL3 /// KIR3DL3 /// KIR3DS1 (11738374_at) / Fold change /veh KIR2DL2 /// KIR2DL4 /// KIR2DL5A /// KIR2DL5B /// KIR2DS1 /// KIR2DS2 /// KIR2DS3 /// KIR2DS4 /// KIR3DL3 /// KIR3DL3 /// KIR3DS1 (11738374_at) / RFU C1QL1 (11718748_at) / Fold change /veh C1QL1 (11718748_at) / RFU TMPRSS4 (11747572_a_at) / Fold change /veh TMPRSS4 (11747572_a_at) / RFU HAMP (11756126_x_at) / Fold change /veh HAMP (11756126_x_at) / RFU RNFT2 (11725882_a_at) / Fold change /veh RNFT2 (11725882_a_at) / RFU NR4A2 (11747474_a_at) / Fold change /veh NR4A2 (11747474_a_at) / RFU ABCC12 (11746883_a_at) / Fold change /veh ABCC12 (11746883_a_at) / RFU TMEM136 (11760407_x_at) / Fold change /veh TMEM136 (11760407_x_at) / RFU CLDN22 /// WWC2 (11732394_at) / Fold change /veh CLDN22 /// WWC2 (11732394_at) / RFU HLA-DPB1 (11760878_x_at) / Fold change /veh HLA-DPB1 (11760878_x_at) / RFU SPINT1 (11716480_a_at) / Fold change /veh SPINT1 (11716480_a_at) / RFU GAP43 (11754022_s_at) / Fold change /veh GAP43 (11754022_s_at) / RFU A4GNT (11735810_at) / Fold change /veh A4GNT (11735810_at) / RFU PRB3 (11715151_x_at) / Fold change /veh PRB3 (11715151_x_at) / RFU TUBB4B (11761932_at) / Fold change /veh TUBB4B (11761932_at) / RFU CAPN14 (11732068_a_at) / Fold change /veh CAPN14 (11732068_a_at) / RFU TMCC2 (11721928_a_at) / Fold change /veh TMCC2 (11721928_a_at) / RFU IRGQ (11745062_a_at) / Fold change /veh IRGQ (11745062_a_at) / RFU FAM174B (11720279_a_at) / Fold change /veh FAM174B (11720279_a_at) / RFU TMPRSS4 (11748680_a_at) / Fold change /veh TMPRSS4 (11748680_a_at) / RFU FAM212B (11763350_a_at) / Fold change /veh FAM212B (11763350_a_at) / RFU PLEKHG5 (11743358_a_at) / Fold change /veh PLEKHG5 (11743358_a_at) / RFU ZSCAN30 (11745921_a_at) / Fold change /veh ZSCAN30 (11745921_a_at) / RFU CMKLR1 (11741424_a_at) / Fold change /veh CMKLR1 (11741424_a_at) / RFU LOC101060620 /// MAPK8IP1 (11723275_at) / Fold change /veh LOC101060620 /// MAPK8IP1 (11723275_at) / RFU SPTSSB (11747773_x_at) / Fold change /veh SPTSSB (11747773_x_at) / RFU PRSS12 (11739890_at) / Fold change /veh PRSS12 (11739890_at) / RFU BIN1 (11741810_x_at) / Fold change /veh BIN1 (11741810_x_at) / RFU WNT11 (11732464_a_at) / Fold change /veh WNT11 (11732464_a_at) / RFU C10orf10 (11716521_a_at) / Fold change /veh C10orf10 (11716521_a_at) / RFU C5orf56 (11738089_at) / Fold change /veh C5orf56 (11738089_at) / RFU CYB561 (11721691_x_at) / Fold change /veh CYB561 (11721691_x_at) / RFU ANKRD19P (11752326_a_at) / Fold change /veh ANKRD19P (11752326_a_at) / RFU OR2T12 /// OR2T33 /// OR2T8 (11738714_s_at) / Fold change /veh OR2T12 /// OR2T33 /// OR2T8 (11738714_s_at) / RFU VCAN (11748164_a_at) / Fold change /veh VCAN (11748164_a_at) / RFU JSRP1 (11732532_at) / Fold change /veh JSRP1 (11732532_at) / RFU KRTAP10-11 (11738290_x_at) / Fold change /veh KRTAP10-11 (11738290_x_at) / RFU MYO3A (11730013_a_at) / Fold change /veh MYO3A (11730013_a_at) / RFU EBF3 (11725865_a_at) / Fold change /veh EBF3 (11725865_a_at) / RFU CAMK2N1 (11719241_x_at) / Fold change /veh CAMK2N1 (11719241_x_at) / RFU C5orf56 (11738088_a_at) / Fold change /veh C5orf56 (11738088_a_at) / RFU OLFML3 (11715873_a_at) / Fold change /veh OLFML3 (11715873_a_at) / RFU LOC100653217 /// NTM (11731650_a_at) / Fold change /veh LOC100653217 /// NTM (11731650_a_at) / RFU MAPK11 (11762145_a_at) / Fold change /veh MAPK11 (11762145_a_at) / RFU FIZ1 (11724087_x_at) / Fold change /veh FIZ1 (11724087_x_at) / RFU OASL (11726364_x_at) / Fold change /veh OASL (11726364_x_at) / RFU SOX15 (11748057_x_at) / Fold change /veh SOX15 (11748057_x_at) / RFU CD79A (11719716_a_at) / Fold change /veh CD79A (11719716_a_at) / RFU HIST1H1D (11736915_at) / Fold change /veh HIST1H1D (11736915_at) / RFU CASKIN2 (11723855_a_at) / Fold change /veh CASKIN2 (11723855_a_at) / RFU LOC730098 (11760151_x_at) / Fold change /veh LOC730098 (11760151_x_at) / RFU OR4N2 (11742367_at) / Fold change /veh OR4N2 (11742367_at) / RFU PRRT2 (11749266_a_at) / Fold change /veh PRRT2 (11749266_a_at) / RFU SNX32 (11753110_a_at) / Fold change /veh SNX32 (11753110_a_at) / RFU CDHR5 (11726645_a_at) / Fold change /veh CDHR5 (11726645_a_at) / RFU RCAN1 (11760418_a_at) / Fold change /veh RCAN1 (11760418_a_at) / RFU FAM167A (11723789_a_at) / Fold change /veh FAM167A (11723789_a_at) / RFU FAM26E (11764081_at) / Fold change /veh FAM26E (11764081_at) / RFU ISYNA1 (11749810_s_at) / Fold change /veh ISYNA1 (11749810_s_at) / RFU ACY1 (11761880_at) / Fold change /veh ACY1 (11761880_at) / RFU 11764098_at / Fold change /veh 11764098_at / RFU SAMD14 (11745864_x_at) / Fold change /veh SAMD14 (11745864_x_at) / RFU NPB (11741838_a_at) / Fold change /veh NPB (11741838_a_at) / RFU TMPRSS6 (11731388_a_at) / Fold change /veh TMPRSS6 (11731388_a_at) / RFU KRTAP10-2 (11738614_at) / Fold change /veh KRTAP10-2 (11738614_at) / RFU ARHGAP8 /// PRR5-ARHGAP8 (11727945_x_at) / Fold change /veh ARHGAP8 /// PRR5-ARHGAP8 (11727945_x_at) / RFU KRTAP5-7 /// NADSYN1 (11734609_at) / Fold change /veh KRTAP5-7 /// NADSYN1 (11734609_at) / RFU RASL12 (11751679_a_at) / Fold change /veh RASL12 (11751679_a_at) / RFU CDKN2B (11736163_a_at) / Fold change /veh CDKN2B (11736163_a_at) / RFU PRF1 (11729649_at) / Fold change /veh PRF1 (11729649_at) / RFU, ZNF638 /// ZNF638-IT1 / Fold change vs veh, ZNF638 /// ZNF638-IT1 / RFU, PANK3 / Fold change vs veh, PANK3 / RFU, SH3YL1 / Fold change vs veh, SH3YL1 / RFU, ZEB2 / Fold change vs veh, ZEB2 / RFU, NRIP1 / Fold change vs veh, NRIP1 / RFU, PTTG1IP / Fold change vs veh, PTTG1IP / RFU, CAPN2 / Fold change vs veh, CAPN2 / RFU, MED14 / Fold change vs veh, MED14 / RFU, SNORA58 / Fold change vs veh, SNORA58 / RFU, C1orf63 / Fold change vs veh, C1orf63 / RFU, LRRFIP1 / Fold change vs veh, LRRFIP1 / RFU, NDUFAF7 / Fold change vs veh, NDUFAF7 / RFU, SLC12A2 / Fold change vs veh, SLC12A2 / RFU, IBTK / Fold change vs veh, IBTK / RFU, ESF1 / Fold change vs veh, ESF1 / Fold change vs veh, TMEM50B / RFU, TAOK1 / Fold change vs veh, TAOK1 / RFU, ACBD3 / Fold change vs veh, ACBD3 / RFU, TMA16 / Fold change vs veh, TMA16 / RFU, RWDD3 / Fold change vs veh, RWDD3 / RFU, BCAT1 / Fold change vs veh, BCAT1 / RFU, EDEM3 / Fold change vs veh, EDEM3 / RFU, TMEM33 / Fold change vs veh, TMEM33 / RFU, WDR75 / Fold change vs veh, WDR75 / RFU, AHCTF1 / Fold change vs veh, AHCTF1 / RFU, TFRC / Fold change vs veh, TFRC / RFU, ZDHHC17 / Fold change vs veh, ZDHHC17 / RFU, NOM1 / Fold change vs veh, NOM1 / RFU, ARL8B / Fold change vs veh, ARL8B / RFU, ZBTB11 / Fold change vs veh, ZBTB11 / RFU, TAMM41 / Fold change vs veh, TAMM41 / RFU, KIAA1704 /// LOC100996395 / Fold change vs veh, KIAA1704 /// LOC100996395 / RFU, ING1 / Fold change vs veh, ING1 / RFU, TRMT61B / Fold change vs veh, TRMT61B / RFU, FUBP3 / Fold change vs veh, FUBP3 / RFU, TP53 / Fold change vs veh, TP53 / RFU, TNKS2 / Fold change vs veh, TNKS2 / RFU, ZFP14 / Fold change vs veh, ZFP14 / RFU, ACTR2 / Fold change vs veh, ACTR2 / RFU, PPP3R1 / Fold change vs veh, PPP3R1 / RFU, PIK3R1 / Fold change vs veh, PIK3R1 / RFU, HNRNPA1 / Fold change vs veh, HNRNPA1 / RFU, RNF170 / Fold change vs veh, RNF170 / RFU, ZNF28 / Fold change vs veh, ZNF28 / RFU, RNGTT / Fold change vs veh, RNGTT / RFU, OGT / Fold change vs veh, OGT / RFU, BRD1 / Fold change vs veh, BRD1 / RFU, MARS / Fold change vs veh, MARS / RFU, ZNF655 / Fold change vs veh, ZNF655 / RFU, FAHD1 / Fold change vs veh, FAHD1 / RFU, BDP1 / Fold change vs veh, BDP1 / RFU, LRRCC1 / Fold change vs veh, LRRCC1 / RFU, ARID1A / Fold change vs veh, ARID1A / RFU, ZNF146 / Fold change vs veh, ZNF146 / RFU, ZNF330 / Fold change vs veh, ZNF330 / RFU, GPN3 / Fold change vs veh, GPN3 / RFU, C9orf123 / Fold change vs veh, C9orf123 / RFU, N4BP2L2 / Fold change vs veh, N4BP2L2 / RFU, ARFIP1 / Fold change vs veh, ARFIP1 / RFU, FAM179B / Fold change vs veh, FAM179B / RFU, BCL10 / Fold change vs veh, BCL10 / RFU, UHRF1BP1L / Fold change vs veh, UHRF1BP1L / RFU, BET1 / Fold change vs veh, BET1 / RFU, CNOT2 / Fold change vs veh, CNOT2 / RFU, ZNF268 / Fold change vs veh, ZNF268 / Fold change vs veh, ZNF507 / RFU, DGCR2 / Fold change vs veh, DGCR2 / RFU, WDSUB1 / Fold change vs veh, WDSUB1 / Fold change vs veh, HSP90B1 /// MIR3652 / RFU, ADSS / Fold change vs veh, ADSS / RFU, GK / Fold change vs veh, GK / RFU, ZNF148 / Fold change vs veh, ZNF148 / RFU, TAF9 / Fold change vs veh, TAF9 / RFU, SLC1A5 / Fold change vs veh, SLC1A5 / RFU, SLMO2 / Fold change vs veh, SLMO2 / RFU, ABCC4 / Fold change vs veh, ABCC4 / RFU, LOC101060439 /// RAP1B / Fold change vs veh, LOC101060439 /// RAP1B / RFU, RFX7 / Fold change vs veh, RFX7 / RFU, GTPBP10 / Fold change vs veh, GTPBP10 / RFU, CNEP1R1 / Fold change vs veh, CNEP1R1 / RFU, BIVM-ERCC5 /// ERCC5 / Fold change vs veh, BIVM-ERCC5 /// ERCC5 / RFU, ILF3 / Fold change vs veh, ILF3 / RFU 11762660_at / Fold change /veh 11762660_at / RFU VCAN (11757783_s_at) / Fold change /veh VCAN (11757783_s_at) / RFU DDX43 (11728927_at) / Fold change /veh DDX43 (11728927_at) / RFU KRT8 (11758188_x_at) / Fold change /veh KRT8 (11758188_x_at) / RFU NKD1 (11759106_at) / Fold change /veh NKD1 (11759106_at) / RFU SRD5A1 (11742802_a_at) / Fold change /veh SRD5A1 (11742802_a_at) / RFU TPSAB1 /// TPSB2 (11721975_s_at) / Fold change /veh TPSAB1 /// TPSB2 (11721975_s_at) / RFU GSTM3 (11746129_a_at) / Fold change /veh GSTM3 (11746129_a_at) / RFU IL23R (11737362_x_at) / Fold change /veh IL23R (11737362_x_at) / RFU TMEM51 (11727254_a_at) / Fold change /veh TMEM51 (11727254_a_at) / RFU PIWIL2 (11732686_x_at) / Fold change /veh PIWIL2 (11732686_x_at) / RFU ORM1 (11744905_x_at) / Fold change /veh ORM1 (11744905_x_at) / RFU CCDC152 (11743942_at) / Fold change /veh CCDC152 (11743942_at) / RFU ECM1 (11717891_a_at) / Fold change /veh ECM1 (11717891_a_at) / RFU IL23R (11748794_a_at) / Fold change /veh IL23R (11748794_a_at) / RFU TNFAIP8L3 (11732012_x_at) / Fold change /veh TNFAIP8L3 (11732012_x_at) / RFU MBOAT4 (11741988_at) / Fold change /veh MBOAT4 (11741988_at) / RFU 11764193_at / Fold change /veh 11764193_at / RFU TMEM53 (11763286_at) / Fold change /veh TMEM53 (11763286_at) / RFU MAGEB2 (11727129_at) / Fold change /veh MAGEB2 (11727129_at) / RFU TMEM200A (11744735_a_at) / Fold change /veh TMEM200A (11744735_a_at) / RFU CCDC152 (11751479_a_at) / Fold change /veh CCDC152 (11751479_a_at) / RFU FAM211A (11726209_a_at) / Fold change /veh FAM211A (11726209_a_at) / RFU RGS16 (11746705_a_at) / Fold change /veh RGS16 (11746705_a_at) / RFU VCAN (11755009_s_at) / Fold change /veh VCAN (11755009_s_at) / RFU RHOB (11743442_s_at) / Fold change /veh RHOB (11743442_s_at) / RFU RGS16 (11720943_a_at) / Fold change /veh RGS16 (11720943_a_at) / RFU RGS16 (11720944_at) / Fold change /veh RGS16 (11720944_at) / RFU, VPS4B / Fold change vs veh, VPS4B / RFU, CREB1 / Fold change vs veh, CREB1 / RFU, DNAJC13 / Fold change vs veh, DNAJC13 / RFU, GNAQ / Fold change vs veh, GNAQ / RFU, CDK5R1 / Fold change vs veh, CDK5R1 / RFU, ZRANB3 / Fold change vs veh, ZRANB3 / RFU, CUL4A / Fold change vs veh, CUL4A / RFU, CCNY / Fold change vs veh, CCNY / RFU, UFL1 / Fold change vs veh, UFL1 / RFU, COG3 / Fold change vs veh, COG3 / RFU, DIAPH2 / Fold change vs veh, DIAPH2 / RFU, SKA2 / Fold change vs veh, SKA2 / RFU, AFF3 / Fold change vs veh, AFF3 / RFU, LMF1 / Fold change vs veh, LMF1 / RFU, IPO11 / Fold change vs veh, IPO11 / RFU, DFFB / Fold change vs veh, DFFB / RFU, FOXP1 / Fold change vs veh, FOXP1 / RFU, CARD8 / Fold change vs veh, CARD8 / RFU, STRN3 / Fold change vs veh, STRN3 / RFU, ADK / Fold change vs veh, ADK / RFU, RASSF2 / Fold change vs veh, RASSF2 / RFU, WIPF1 / Fold change vs veh, WIPF1 / RFU, LARP1B / Fold change vs veh, LARP1B / RFU, RASA1 / Fold change vs veh, RASA1 / RFU, RB1 / Fold change vs veh, RB1 / RFU, PPFIA1 / Fold change vs veh, PPFIA1 / RFU, MAT2A / Fold change vs veh, MAT2A / RFU, CCT5 / Fold change vs veh, CCT5 / RFU, WDR92 / Fold change vs veh, WDR92 / RFU, CUX1 / Fold change vs veh, CUX1 / RFU, TTC7A / Fold change vs veh, TTC7A / RFU, TMEM135 / Fold change vs veh, TMEM135 / RFU, DEPTOR / Fold change vs veh, DEPTOR / RFU, CPM / Fold change vs veh, CPM / RFU, DNAJB6 / Fold change vs veh, DNAJB6 / RFU, CACNA2D3 / Fold change vs veh, CACNA2D3 / RFU, DTX4 / Fold change vs veh, DTX4 / RFU, TFCP2 / Fold change vs veh, TFCP2 / RFU, GMCL1 /// GMCL1P1 / Fold change vs veh, GMCL1 /// GMCL1P1 / RFU, AEBP2 / Fold change vs veh, AEBP2 / RFU, SNHG1 /// SNORD22 /// SNORD25 /// SNORD26 /// SNORD27 /// SNORD28 /// SNORD29 /// SNORD31 / Fold change vs veh, SNHG1 /// SNORD22 /// SNORD25 /// SNORD26 /// SNORD27 /// SNORD28 /// SNORD29 /// SNORD31 / Fold change (Aza/veh), C12orf56 (ProbeSet 11735607_a_at) / Fold change (ACY-1035/veh), C12orf56 (ProbeSet 11735607_a_at) / Fold change (Aza/veh), FGFR1OP (ProbeSet 11751329_s_at) / Fold change (ACY-1035/veh), FGFR1OP (ProbeSet 11751329_s_at) / Fold change (Aza/veh), VPS36 (ProbeSet 11739960_a_at) / Fold change (ACY-1035/veh), VPS36 (ProbeSet 11739960_a_at) / RFU SYPL1 (11715823_x_at) / Fold change /veh SYPL1 (11715823_x_at) / RFU IGFBP7 (11715501_s_at) / Fold change /veh IGFBP7 (11715501_s_at) / RFU REEP3 (11722064_at) / Fold change /veh REEP3 (11722064_at) / RFU IGLL1 (11728026_x_at) / Fold change /veh IGLL1 (11728026_x_at): dose or concentration left out as unconfirmed
Settings: gene VPS36; Azacitidine vs DMSO; LIST F

SMILES: Nc1ncn([C@@H]2O[C@H](CO)[C@@H](O)[C@H]2O)c(=O)n1 [azacitidine]
- Fold change (Aza/veh), VPS36 (ProbeSet 11739960_a_at): 1.14

From paper PMC5218480 (PLoS ONE, 2017)
